What was measured:
[1] = Clear aqueous ticagrelor-cyclodextrin solutions considering 65 mg dose; format: physicochemical; details: using 20-40% w/w HPβCD
[2] = Solubility of ticagrelor in SBECD (appearance on shaking platform); format: physicochemical
Experimental: In a first example two different types of cyclodextrin were used and compared for the solubilization of ticagrelor. An unbuffered stock solution of HPβCD or SBECD was made in water at the target concentrations of 20 w/w %, 25 w/w %, 30 w/w %, 35 w/w % and 40 w/w %. Ticagrelor was added slowly under vortex. Ticagrelor was used at concentrations of 5, 10 or 14 mg/ml in milli Q water. The ticagrelor-cyclodextrin solutions were left on a shaking platform. No sonification or heat was applied.

[3] = SBECD 20% w/w, ticagrelor 5 mg/ml
[4] = SBECD 20% w/w, ticagrelor 10 mg/ml
[5] = SBECD 20% w/w, ticagrelor 14 mg/ml
[6] = SBECD 25% w/w, ticagrelor 5 mg/ml
[7] = SBECD 25% w/w, ticagrelor 10 mg/ml
[8] = SBECD 25% w/w, ticagrelor 14 mg/ml
[9] = SBECD 30% w/w, ticagrelor 5 mg/ml
[10] = SBECD 30% w/w, ticagrelor 10 mg/ml
[11] = SBECD 30% w/w, ticagrelor 14 mg/ml
[12] = SBECD 35% w/w, ticagrelor 5 mg/ml
[13] = SBECD 35% w/w, ticagrelor 10 mg/ml
[14] = SBECD 35% w/w, ticagrelor 14 mg/ml
[15] = SBECD 40% w/w, ticagrelor 5 mg/ml
[16] = SBECD 40% w/w, ticagrelor 10 mg/ml

## CCCSc1nc(N[C@@H]2C[C@H]2c2ccc(F)c(F)c2)c2nnn([C@@H]3C[C@H](OCCO)[C@@H](O)[C@H]3O)c2n1 [Ticagrelor, (1S,2S,3R,5S)-3-{7-[(1R,2S)-2-(3,4-difluorophenyl)cyclopropylamino]5-(propylthio)-3H-(1,2,3)triazolo (4,5-D)pyrimidin-3-yl}-5-(2 hydroxyethoxy)cyclopentane-1,2-diol]
[1]
  Ticagrelor solution concentration achieved: 5 to 13 mg/mL
[2]; [3]
  Appearance After 5 min of shaking: − (translucent solution with precipitation)
  Appearance After 30 min of shaking: − (translucent solution with precipitation)
  Appearance After 60 min of shaking: − (translucent solution with precipitation)
  Appearance After 3 h of shaking: − (translucent solution with precipitation)
  Appearance After overnight shaking: − (translucent solution with precipitation)
[2]; [4]
  Appearance After 5 min of shaking: − (translucent solution with precipitation)
  Appearance After 30 min of shaking: − (translucent solution with precipitation)
  Appearance After 60 min of shaking: − (translucent solution with precipitation)
  Appearance After 3 h of shaking: − (translucent solution with precipitation)
  Appearance After overnight shaking: − (translucent solution with precipitation)
[2]; [5]
  Appearance After 5 min of shaking: − (translucent solution with precipitation)
  Appearance After 30 min of shaking: − (translucent solution with precipitation)
  Appearance After 60 min of shaking: − (translucent solution with precipitation)
  Appearance After 3 h of shaking: − (translucent solution with precipitation)
  Appearance After overnight shaking: − (translucent solution with precipitation)
[2]; [6]
  Appearance After 5 min of shaking: − (translucent solution with precipitation)
  Appearance After 30 min of shaking: − (translucent solution with precipitation)
  Appearance After 60 min of shaking: − (translucent solution with precipitation)
  Appearance After 3 h of shaking: − (translucent solution with precipitation)
  Appearance After overnight shaking: − (translucent solution with precipitation)
[2]; [7]
  Appearance After 5 min of shaking: − (translucent solution with precipitation)
  Appearance After 30 min of shaking: − (translucent solution with precipitation)
  Appearance After 60 min of shaking: − (translucent solution with precipitation)
  Appearance After 3 h of shaking: − (translucent solution with precipitation)
  Appearance After overnight shaking: − (translucent solution with precipitation)
[2]; [8]
  Appearance After 5 min of shaking: − (translucent solution with precipitation)
  Appearance After 30 min of shaking: − (translucent solution with precipitation)
  Appearance After 60 min of shaking: − (translucent solution with precipitation)
  Appearance After 3 h of shaking: − (translucent solution with precipitation)
  Appearance After overnight shaking: − (translucent solution with precipitation)
[2]; [9]
  Appearance After 5 min of shaking: − (translucent solution with precipitation)
  Appearance After 30 min of shaking: − (translucent solution with precipitation)
  Appearance After 60 min of shaking: − (translucent solution with precipitation)
  Appearance After 3 h of shaking: − (translucent solution with precipitation)
  Appearance After overnight shaking: − (translucent solution with precipitation)
[2]; [10]
  Appearance After 5 min of shaking: − (translucent solution with precipitation)
  Appearance After 30 min of shaking: − (translucent solution with precipitation)
  Appearance After 60 min of shaking: − (translucent solution with precipitation)
  Appearance After 3 h of shaking: − (translucent solution with precipitation)
  Appearance After overnight shaking: − (translucent solution with precipitation)
[2]; [11]
  Appearance After 5 min of shaking: − (translucent solution with precipitation)
  Appearance After 30 min of shaking: − (translucent solution with precipitation)
  Appearance After 60 min of shaking: − (translucent solution with precipitation)
  Appearance After 3 h of shaking: − (translucent solution with precipitation)
  Appearance After overnight shaking: − (translucent solution with precipitation)
[2]; [12]
  Appearance After 5 min of shaking: − (translucent solution with precipitation)
  Appearance After 30 min of shaking: +/−
  Appearance After 60 min of shaking: +/−
  Appearance After 3 h of shaking: +/−
  Appearance After overnight shaking: − (translucent solution with precipitation)
[2]; [13]
  Appearance After 5 min of shaking: − (translucent solution with precipitation)
  Appearance After 30 min of shaking: − (translucent solution with precipitation)
  Appearance After 60 min of shaking: − (translucent solution with precipitation)
  Appearance After 3 h of shaking: − (translucent solution with precipitation)
  Appearance After overnight shaking: − (translucent solution with precipitation)
[2]; [14]
  Appearance After 5 min of shaking: − (translucent solution with precipitation)
  Appearance After 30 min of shaking: − (translucent solution with precipitation)
  Appearance After 60 min of shaking: − (translucent solution with precipitation)
  Appearance After 3 h of shaking: − (translucent solution with precipitation)
  Appearance After overnight shaking: − (translucent solution with precipitation)
[2]; [15]
  Appearance After 5 min of shaking: − (translucent solution with precipitation)
  Appearance After 30 min of shaking: +/−
  Appearance After 60 min of shaking: +/−
  Appearance After 3 h of shaking: +/−
  Appearance After overnight shaking: + (clear, appeared completely dissolved)
[2]; [16]
  Appearance After 5 min of shaking: − (translucent solution with precipitation)
  Appearance After 30 min of shaking: − (translucent solution with precipitation)
  Appearance After 60 min of shaking: − (translucent solution with precipitation)
  Appearance After 3 h of shaking: − (translucent solution with precipitation)

— patent publication US20250235455A1, “AQUEOUS TICAGRELOR SOLUTIONS, METHOD OF MANUFACTURING AND USES” (HYLORIS DEVELOPMENTS SA, priority 2022, published 2025)
